What was measured:
[1] = system: splenic enriched CD4^+ T cells; assay: Cell viability by Fixable Viability Dye eFluor 780, flow cytometry; type: cell-based, murine; conditions: 400 µM, 2 hours
Experimental: After mechanic disruption of the spleen, erythrocytes are eliminated by hypotonic shock with ammonium chloride potassium (ACK) lysing buffer. Then CD4^+ T cells are isolated from spleen cell suspension by negative selection using a CD4^+ T cell isolation kit (Miltenyi Biotec, Paris, France) followed by auto-MACS (Miltenyi Biotec) magnetic sorting, according to the manufacturer's instructions. Purity of isolated CD4^+ T cells is usually > 95%. Cell suspensions are first incubated with anti-FcγRIII/II (Fc Block, 2.4G2, BD Biosciences, Le Pont de Claix, France) monoclonal antibodies (mAb) for 10 minutes at 4°C and then stained for 30 minutes at 4°C in PBS, 0.1% bovine serum albumin (BSA) with Fc Block present, using saturating amounts of rat anti-mouse CD4-Pacific Blue (RM4-5, BD Biosciences) mAb. Gates for CD4^+ populations are set according to isotype controls. Cell viability is determined by staining with 7-aminoactinomycin D (7-AAD; Sigma-Aldrich, St-Quentin-Fallavier, France) or Fixable Viability Dye eFluor 780 (eBiosciences, Paris, France). When indicated, samples are fixed with 1% paraformaldehyde. Samples are acquired on an LSR II flow cytometer (BD Biosciences) and data were analyzed with DIVA software (BD Biosciences).

[2] = system: Reactive Oxygen Species (ROS); assay: In vivo chemiluminescence imaging of localized inflammation (L-012); parameters: species or system mice; conditions: 4 days after first MnTBAP injection, IM rAAV gene transfer, vs PBS
Experimental: (§1) MnTBAP (Calbiochem, San Diego, USA or Enzo Life Sciences, Farmingdale, USA) is dissolved in 75 mM NaOH to constitute a 20 mM stock solution. MnTBAP is dissolved in the complete medium, used for in vitro treatment, containing RPMI-1640 supplemented with 10% heat-inactivated fetal calf serum, 100 U/ml penicillin/streptomycin, 2 mM glutamax and 50 µM β-mercaptoethanol β-ME). Hypertonic medium, used to block clathrin dependent endocytosis, is complete medium supplemented with 0.45 M sucrose. For in vivo treatment, the stock solution is diluted with PBS and administered at 80 mg/kg intraperitoneally daily during five days. Control animals are injected with equivalent volume of PBS.
Intramuscular (IM) injection: Two hours post first intraperitoneal (IP) injection of MnTBAP, mice are anesthetized by IP injection of xylazine (10 mg/kg) and ketamine (100 mg/kg) and 25 µl of a rAAV2/1 CMV SGCA HY viral preparation containing 2.5.10^9 vg is injected in the left tibialis anterior muscle (TA). Controls are injected with PBS. Mice are sacrificed 15 days after vector injection and the injected muscles are harvested to perform histologic analysis. […]
After mice isofluorane anaesthesia, 100 µl of L-012 solution (15 mg/ml) (Wako, Osaka, Japan) are administered intravenously in retro-orbital sinus 4 days after first MnTBAP injection. […] Radiance (ph/s/cm^2/sr) is measured for each Region of Interest (ROI).

clathrin and CD4 = assay: Immunofluorescence confocal microscopy, anti-CD4 and anti-clathrin; type: cell-based; conditions: murine splenic enriched CD4+ T cells, 2 hours, 400 µM, vs non-treated
Experimental: After culture in complete medium with or without MnTBAP at 400 µM, murine splenic CD4^+ T cells are collected and subjected to immunostaining as previously described (T. M. Neildez-Nguyen et al., Immunology 144, 431. 2015). Briefly, after adhesion on poly-L-lysine-coated slides (Thermo Fisher Scientific), cells are fixed in 4% paraformaldehyde for 5 minutes at 4°C and for 10 minutes at room temperature, and permeabilized with methanol for 6 minutes at -20°C. Cells are stained overnight with rat anti-mouse CD4-APC (BD Biosciences) and rabbit anti-mouse clathrin (Abcam, Paris, France) antibodies, and then with the goat anti-rabbit Alexa Fluor 488 secondary antibody (Invitrogen, Carlsbad, USA) for 30 minutes at room temperature. Negative controls are performed with the corresponding isotype controls of primary antibodies used (BD Biosciences and Abcam). The slides are mounted with Fluoromount/Dapi (SouthernBiotech, Montrouge, France). Images are acquired with confocal-laser-scanning microscope (Leica Microsystems, Nanterre, France).

[3] = system: transgene-specific CD8^+ and CD4^+ T-cell responses; assay: IM rAAV gene transfer: transgene-specific T-cell responses by IFN-γ ELISPOT; type: in vivo, C57BL/6 mice; conditions: vs PBS
Experimental: as §1
Intramuscular (IM) injection: Two hours post first intraperitoneal (IP) injection of MnTBAP, mice are anesthetized by IP injection of xylazine (10 mg/kg) and ketamine (100 mg/kg) and 25 µl of a rAAV2/1 CMV SGCA HY viral preparation containing 2.5.10^9 vg is injected in the left tibialis anterior muscle (TA). Controls are injected with PBS. […] Spleens are harvested to analyze transgene-specific T cell response.
Spleens are harvested to analyze the cellular immune anti-transgene response by T-cell cytokine response assay. Multiscreen-HA Assay System 96-well Filtration plates (Merck) are coated overnight with 2.5 µg/ml of anti-mouse IFN-γ purified mAb (eBiosciences) at 4°C, washed, and then blocked with RPMI 1640 medium (Life Technologies, Saint-Aubin, France) supplemented with 10% heat inactivated fetal bovine serum (FCS), 100U/ml penicillin/streptomycin (Thermo Fisher Scientific) and 2mM GlutaMAXTM-I (Life technologies) for 2 hours at 37°C. Plates are washed three times with RPMI 1640 medium without FCS. […] Spots are counted using an AID reader (Ceipheid Benelux, Louven, Belgium). Spot forming units (SFU) per million cells for each mouse are calculated as the average value of duplicate measures after subtraction of background values obtained with in vitro unstimulated splenocytes.

[4] = eight days post vector injection

For `O=C(O)c1ccc(-c2c3nc(c(-c4ccc(C(=O)O)cc4)c4ccc([n-]4)c(-c4ccc(C(=O)O)cc4)c4nc(c(-c5ccc(C(=O)O)cc5)c5ccc2[n-]5)C=C4)C=C3)cc1.[Mn+3]` [MnTBAP, manganese [III] tetrakis (4-benzoic acid) porphyrin], the “cell death (eFluor 780+ dead cells)” value [1] was “doesn't result in more eFluor 780+ dead cells”, the “Reactive Oxygen Species (ROS), average radiance of left inferior limb” value [2] was “produce less Reactive Oxygen Species (ROS)” and the “colocalization of clathrin and CD4” value (clathrin and CD4) was “colocalization of clathrin and CD4 is observed”. The “IFN-γ response of transgene specific CD4^+ T cells” value [3, 4] was “significantly decreased”, the “IFN-γ response of transgene specific CD8^+ T cells” value [3, 4] was “no significant differences” and the “IFN-γ response of transgene specific CD8^+ T cells” value ([3]; fifteen days post vector injection) was “significantly decreased”.

Reference: patent EP3431088A1, “MNTBAP FOR USE IN INDUCING A TRANSIENT IMMUNE TOLERANCE” (priority 2017, dated 2019)
